# Measured values reported in patent publication US20240307577A1, “CHLORINATED 4'-ALKYLUMBELLIFERYL ALPHA-D-GLUCOPYRANOSIDE AND METHOD OF ASSESSING EFFICACY OF A STERILIZATION PROCESS INCLUDING THE SAME” (3M INNOVATIVE PROPERTIES COMPANY, priority 2021, published 2024).
# Tested on: Geobacillus stearothermophilus spores (ATCC 7953)
# Experiment: Fluorescence of enzyme substrates in culture media with Geobacillus stearothermophilus spores (96-well plate, 60° C.)
# Format: cell-based
# Conditions: for MEASURED FLUORESCENCE, RFU 10 Sec / MEASURED FLUORESCENCE, RFU +5 min / MEASURED FLUORESCENCE, RFU +10 min / MEASURED FLUORESCENCE, RFU +30 min / MEASURED FLUORESCENCE, RFU 10 sec: substrate 0.3 mg/mL, 60° C.; for fluorescent signal in the presence of Geobacillus stearothermophilus spores compared with MUG and 8F-MUG: high and low spore levels, two low pH levels, MUG also at its optimal pH of 8.0
# Procedure: Culture media was prepared by dissolving by dissolving 2 g/L phytone peptone (BD BBL 211906) and 0.2 g/L L-alanine (Sigma 05129) in deionized water. 1N NaOH or 0.1 N HCl were used to adjust pH, and media were brought to volume and filter sterilizing using a 0.22 micron polyethersulfone (PES) filter. Stock solutions (25 mg/ml) of 6′-chloro-4′-methylumbelliferyl-a-D-glucopyranoside, 8′-chloro-4′-methylumbelliferyl-a-D-glucopyranoside, 8′-fluoro-4′-methylumbelliferyl-a-D-glucopyranoside, and 4-methylumbelliferyl-a-D-glucopyranoside were prepared in DMSO. The fluorogenic a-glucosidase substrates were added to culture media at a final concentration of 0.3 mg/ml.
# (§1) Culture media (pH 6.7) containing 6′-chloro-4′-methylumbelliferyl α-D-glucopyranoside (0.3 mg/mL) was each added to eight wells (100 microliters per well) of a black 96-well microtiter plate with (NUNC #165301, Thermo Fisher Scientific, Waltham, Massachusetts). A 5-microliter aqueous suspension containing 5×10^3 Geobacillus stearothermophilus spores (ATCC 7953) was added to 4 of the wells for each medium in the microtiter plate. […] The top of the plate was covered with an optically clear sealing film (product #4311971, Applied Biosystems Corporation, Foster City, California). The plate was warmed at 60° C. and shaken in a linear direction. Fluorescence readings (360 nm excitation/450 nm emission at 50% gain) were taken from the bottom of the plate. A reading was taken at an initial time point of 10 seconds and then at +1-minute intervals thereafter. A Synergy Neo2 fluorescence plate reader (BioTek Company, Winooski, Vermont) was used. In Table 1, the mean fluorescence values detected (RFU) at times of 10 seconds, +5 minutes, +10 minutes, and +30 minutes are reported. The mean fluorescence values detected for the control wells were 511 RFU at 10 seconds; 426 RFU at +5 minutes: 373 RFU at +10 minutes, and 310 RFU at +30 minutes.
# as §1, with “(pH 7.0)” for “(pH 6.7)”, “Table 2,” for “Table 1,”, “were 512” for “were 511”, “seconds; 417” for “seconds; 426”, “+5 minutes; 363” for “+5 minutes: 373”, “and 308” for “and 310”
# Culture media (pH 6.7) containing 6′-chloro-4′-methylumbelliferyl α-D-glucopyranoside (0.3 mg/mL) was each added to eight wells (100 microliters per well) of a black 96-well microtiter plate with (NUNC #165301, Thermo Fisher Scientific, Waltham, Massachusetts). A 5-microliter aqueous suspension containing 5×10^5 Geobacillus stearothermophilus spores (ATCC 7953) was added to 4 of the wells for each medium in the microtiter plate. […] The top of the plate was covered with an optically clear sealing film (product #4311971, Applied Biosystems Corporation, Foster City, California). The plate was warmed at 60° C. and shaken in a linear direction. Fluorescence readings (360 nm excitation/450 nm emission at 50% gain) were taken from the bottom of the plate. […]
# [1] = 5 × 10^3 spores, culture media pH 6.7, 360 nm ex/450 nm em
# [2] = 5 × 10^3 spores, culture media pH 6.7
# [3] = 5 × 10^3 spores, culture media pH 7.0
# [4] = 5 × 10^5 spores, culture media pH 6.7
# [5] = 5 × 10^5 spores, culture media pH 7.0
# [6] = 5 × 10^3 spores, culture media pH 8.0
# [7] = 5 × 10^5 spores, culture media pH 8.0
SMILES,"MEASURED FLUORESCENCE, RFU 10 Sec [1] [RFU]","MEASURED FLUORESCENCE, RFU +5 min [2] [RFU]","MEASURED FLUORESCENCE, RFU +10 min [2] [RFU]","MEASURED FLUORESCENCE, RFU +30 min [2] [RFU]","MEASURED FLUORESCENCE, RFU 10 Sec [3] [RFU]","MEASURED FLUORESCENCE, RFU +5 min [3] [RFU]","MEASURED FLUORESCENCE, RFU +10 min [3] [RFU]","MEASURED FLUORESCENCE, RFU +30 min [3] [RFU]","MEASURED FLUORESCENCE, RFU 10 sec [4] [RFU]","MEASURED FLUORESCENCE, RFU +5 min [4] [RFU]","MEASURED FLUORESCENCE, RFU +10 min [4] [RFU]","MEASURED FLUORESCENCE, RFU +30 min [4] [RFU]","MEASURED FLUORESCENCE, RFU 10 sec [5] [RFU]","MEASURED FLUORESCENCE, RFU +5 min [5] [RFU]","MEASURED FLUORESCENCE, RFU +10 min [5] [RFU]","MEASURED FLUORESCENCE, RFU +30 min [5] [RFU]",fluorescent signal in the presence of Geobacillus stearothermophilus spores compared with MUG and 8F-MUG,further results
"Cc1cc(=O)oc2c(Cl)c(O[C@H]3O[C@H](CO)[C@@H](O)[C@H](O)[C@H]3O)ccc12 [Example 2, 8′-chloro-4′-methylumbelliferyl α-D-glucopyranoside]",1164,3013,6278,15253,1500,3370,6612,16521,21302,56949,73987,81560,21883,58454,77112,83010,higher fluorescent signal,–
"Cc1cc(=O)oc2c(F)c(O[C@H]3O[C@H](CO)[C@@H](O)[C@H](O)[C@H]3O)ccc12 [Example 8F-MUG, 8′-fluoro-4′-methylumbelliferyl α-D-glucopyranoside, reference compound]",693,1422,2869,8410,777,1573,3153,9038,8975,31069,50175,67041,8171,34178,56663,70392,–,–
"Cc1cc(=O)oc2cc(O[C@H]3O[C@H](CO)[C@@H](O)[C@H](O)[C@H]3O)ccc12 [MUG, 4′-methylumbelliferyl-α-D-glucopyranoside, reference compound]",430,403,464,991,–,–,–,–,895,3260,8049,29586,–,–,–,–,–,"MEASURED FLUORESCENCE, RFU 10 Sec [6]: 540 RFU; MEASURED FLUORESCENCE, RFU +5 min [6]: 658 RFU; MEASURED FLUORESCENCE, RFU +10 min [6]: 993 RFU; MEASURED FLUORESCENCE, RFU +30 min [6]: 2891 RFU; MEASURED FLUORESCENCE, RFU 10 sec [7]: 2644 RFU; MEASURED FLUORESCENCE, RFU +5 min [7]: 12059 RFU; MEASURED FLUORESCENCE, RFU +10 min [7]: 29277 RFU; MEASURED FLUORESCENCE, RFU +30 min [7]: 75861 RFU"
"Cc1cc(=O)oc2cc(O[C@H]3O[C@H](CO)[C@@H](O)[C@H](O)[C@H]3O)c(Cl)cc12 [Example 1, 6′-chloro-4′-methylumbelliferyl α-D-glucopyranoside]",1013,2251,4622,12582,1226,2377,4424,11941,17227,53202,79375,98077,18386,53621,81061,99019,higher fluorescent signal,–
